Here are results for eleven compounds from US9913843B2, “Protein kinase C inhibitors and uses thereof” (Rigel Pharmaceuticals, Inc., priority 2012, dated 2018).

SMILES strings stand for the structures. pIC50: −log10 of the molar value. Like-named read-outs stand apart in the source and are kept apart here. A value given as a limit tells only on which side of the number the result lay.

The test concerns PKC mediated IL-2 production in human primary T cells. Kind of test: IL-2 ELISA, human primary T cell, anti CD3+CD28+ (whole cell functional assay for PKC mediated IL-2 production). Type of test: cell-based. The method in brief:
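Primary human T cells (PBMC-derived, expanded on plate-bound anti-CD3/CD28 with IL-2, then IL-2-washed) were pre-incubated 1 h at 37 °C with compound, then stimulated on 1 μg/ml anti-CD3 plus 5 μg/ml anti-CD28. After 24 h at 37 °C, secreted IL-2 was measured by ELISA; counter assay used 0.5 ng/ml PMA plus 0.1 μM ionomycin (final).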
Background: An ELISA detects its analyte on a solid surface through an enzyme-linked reagent.

Where [1] appears, read: 24 h, human primary T cells stimulated with anti-CD3 + anti-CD28, IL-2 by ELISA, read-out: IC50 for blocking IL-2 production.
[2] abbreviates: human primary T cells stimulated with anti-CD3 + anti-CD28, 24 h, IL-2 by ELISA, 8 pt, read-out: IL2 ELISA, Human primary T cell, anti-CD3 + CD28, 8 pt (IC50).

Regarding `Cc1nnnn1-c1ccc(F)c(Nc2nccc(NC[C@@H]3CCCN4CCCC[C@H]34)n2)c1` [Compound 50, N2-(2-fluoro-5-(5-methyl-1H-tetrazol-1-yl)phenyl)-N4-(((1S,9aR)-octahydro-1H-quinolizin-1-yl)methyl)pyrimidine-2,4-diamine], the negative-log IC50 (pIC50) under setting [1] was greater than 4.52 and the pIC50 under setting [2] was 5.70.
`COc1ccc(Nc2nccc(NC[C@@H]3CCCN4CCCC[C@H]34)n2)cc1-n1nnnc1C` [Compound 51, N4-(((1S,9aR)-octahydro-1H-quinolizin-1-yl)methyl)-N2-(4-methoxy-3-(5-methyl-1H-tetrazol-1-yl)phenyl)pyrimidine-2,4-diamine]: the pIC50 reads like this: under setting [1], greater than 4.52; under setting [2], 6.27.
Taken in the same sequence, the figures for `COc1cc(Nc2nccc(NC[C@@H]3CCCN4CCCC[C@H]34)n2)cc(-n2nnnc2C)c1` [Compound 52, N4-(((1S,9aR)-octahydro-1H-quinolizin-1-yl)methyl)-N2-(3-methoxy-5-(5-methyl-1H-tetrazol-1-yl)phenyl)pyrimidine-2,4-diamine] were greater than 4.52 and 6.35.
Taken in the same sequence, the figures for `N#Cc1cccc(Nc2nccc(NC[C@@H]3CCCN4CCCC[C@H]34)n2)c1` [Compound 53, 3-(4-(((1S,9aR)-octahydro-1H-quinolizin-1-yl)methylamino)pyrimidin-2-ylamino)benzonitrile] were greater than 4.52 and 5.60.
Consider `Cc1ccc(Nc2nccc(NC[C@@H]3CCCN4CCCC[C@H]34)n2)cc1C#N` [Compound 54, 5-(4-(((1S,9aR)-octahydro-1H-quinolizin-1-yl)methylamino)pyrimidin-2-ylamino)-2-methylbenzonitrile], for which the pIC50 is, setting by setting: under setting [1], greater than 4.52; under setting [2], 5.96.
Taken in the same sequence, the figures for `N#Cc1cc(Nc2nccc(NC[C@@H]3CCCN4CCCC[C@H]34)n2)ccc1C1CC1` [Compound 55, 5-(4-(((1S,9aR)-octahydro-1H-quinolizin-1-yl)methylamino)pyrimidin-2-ylamino)-2-cyclopropylbenzonitrile] were greater than 4.52 and 6.22.
Taken in the same sequence, the figures for `N#Cc1cc(Nc2nccc(NC[C@@H]3CCCN4CCCC[C@H]34)n2)c(F)cc1C1CC1` [Compound 56, 5-(4-(((1S,9aR)-octahydro-1H-quinolizin-1-yl)methylamino)pyrimidin-2-ylamino)-2-cyclopropyl-4-fluorobenzonitrile] were greater than 4.52 and 5.42.
Consider `COc1cc(Nc2nccc(NC[C@@H]3CCCN4CCCC[C@H]34)n2)cc(OC)c1` [Compound 57, N4-(((1S,9aR)-octahydro-1H-quinolizin-1-yl)methyl)-N2-(3,5-dimethoxyphenyl)pyrimidine-2,4-diamine], for which the pIC50 was greater than 4.52 under setting [1] and 5.45 under setting [2].
Taken in the same sequence, the figures for `O=c1[nH]c2cc(Nc3nccc(NC[C@@H]4CCCN5CCCC[C@H]45)n3)ccc2o1` [Compound 58, 5-(4-(((1S,9aR)-octahydro-1H-quinolizin-1-yl)methylamino)pyrimidin-2-ylamino)benzo[d]oxazol-2(3H)-one] were greater than 4.52 and 4.73.
On to `Cc1cnc(Nc2cc(-n3cnnn3)c(C3CC3)cc2F)nc1NC[C@@H]1CCCN2CCCC[C@H]12` [Compound 59, N2-(4-cyclopropyl-2-fluoro-5-(1H-tetrazol-1-yl)phenyl)-N4-(((1S,9aR)-octahydro-1H-quinolizin-1-yl)methyl)-5-methylpyrimidine-2,4-diamine], for which the pIC50 is, setting by setting: under setting [1], greater than 4.52; under setting [2], 6.80.
Taken in the same sequence, the figures for `Cc1ccc(Nc2ncc(C)c(NC[C@@H]3CCCN4CCCC[C@H]34)n2)cc1-n1cnnn1` [Compound 60, N4-(((1S,9aR)-octahydro-1H-quinolizin-1-yl)methyl)-5-methyl-N2-(4-methyl-3-(1H-tetrazol-1-yl)phenyl)pyrimidine-2,4-diamine] were greater than 4.52 and 5.87.

The pIC50 is the IC50 on a negative log10 scale, so that one unit is a factor of ten.
